Consider one compound from PMC4250379 (Neuroscience, 2014).

In general, Kd refers to the equilibrium constant for the complex coming apart.

The target in this assay is T1, MD-2 (Homo sapiens, UniProt Q9Y6Y9).
T1 sequence (Q9Y6Y9 19-160): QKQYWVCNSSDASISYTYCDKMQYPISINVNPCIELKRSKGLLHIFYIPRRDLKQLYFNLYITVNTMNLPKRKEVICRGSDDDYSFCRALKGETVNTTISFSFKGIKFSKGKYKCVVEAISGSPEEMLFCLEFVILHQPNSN
Description: quenching of MD-2 intrinsic Tyr/Trp fluorescence. It counts as binding.

On to `CN1CC[C@]23c4c5ccc(O[C@@H]6O[C@H](C(=O)O)[C@@H](O)[C@H](O)[C@H]6O)c4O[C@H]2[C@@H](O)C=C[C@H]3[C@H]1C5` [M3G, morphine-3-glucuronide], for which the Kd amounted to 1500 ± 300 nM.
